Measured values reported in patent US10000483B2, “Bone marrow on X chromosome kinase (BMX) inhibitors and uses thereof” (Dana-Farber Cancer Institute, Inc., priority 2012, dated 2018).

How the values were obtained:
[1] = target: DYRK1A (Homo sapiens (Human), UniProt Q13627); experiment: Kinase panel at 1 uM (Table 9); assay type: binding; details: read-out: % inhibition at 1 uM, DYRK1A
Source text: (§1) Screening hits are identified by measuring the amount of protein captured in test versus control samples by using a quantitative, precise, and ultra-sensitive qPCR method that detects the associated DNA label.

[2] = system: TYK2E957D transformed Ba/F3 cells; experiment: cells; details: Mus musculus, BaF3, read-out: GI50, TYK2E957D
[3] = system: TEL-Abl transformed Ba/F3 cells; experiment: cells; details: Mus musculus, BaF3, read-out: GI50, TEL-Abl
[4] = system: RV1 xenograft; experiment: RV1 xenograft growth; details: over 2 weeks, in vivo treatment; FIG. 19
[5] = target: JNK1 (Homo sapiens (Human), UniProt P45983); experiment: Kinase panel at 1 uM (Table 9); assay type: binding; details: read-out: % inhibition at 1 uM, JNK1
Source text: as §1

[6] = system: TEL-JAK3 transformed Ba/F3 cells; experiment: cells; details: Mus musculus, BaF3, read-out: GI50, TEL-JAK3 (+IL-3)
[7] = system: RV-1 cells expressing wild-type BMX or C496S mutant; details: FIG. 16
[8] = target: T1, BMX (Homo sapiens (Human), UniProt P51813); experiment: BMX autophosphorylation in RV-1 cells; assay type: cell-based
[9] = target: T1, BMX; experiment: DiscoverX binding assay
Source text: as §1

[10] = target: PIP5K2C (Homo sapiens (Human), UniProt Q8TBX8); experiment: Kinase panel at 1 uM (Table 9); assay type: binding; details: read-out: % inhibition at 1 uM, PIP5K2C
Source text: as §1

[11] = system: Ramos cells; experiment: Cell proliferation analysis for WM and lymphoma cell lines (CellTiter-Glo); assay type: cell-based; details: Homo sapiens, 72 hours
Procedure: Various cell lines were used including Waldenström's macroglobulinemia (WM) cell lines (BCWM.1, MWCL-1, RPCI-WM1) and B-cell lymphoma cell lines (OCI-Ly3, Ramos, OCI-Ly19). Cells were seeded into 384 well plates with the EL406 Combination Washer Dispenser (BioTek Instruments, Inc.) and inhibitor compounds were injected into the cells culture media with the JANUS Automated Workstation (PerkinElmer Inc.).

[12] = target: DYRK2 (Homo sapiens (Human), UniProt Q92630); experiment: Kinase panel at 1 uM (Table 9); assay type: binding; details: read-out: % inhibition at 1 uM, DYRK2
Source text: as §1

[13] = system: TEL-BLK transformed Ba/F3 cells; experiment: cells; details: Mus musculus, BaF3, read-out: GI50, TEL-BLK
[14] = target: BLK (Homo sapiens (Human), UniProt P51451); experiment: DiscoverX binding assay
Source text: as §1

[15] = target: MEK5 (Homo sapiens (Human), UniProt Q13163); experiment: Kinase panel at 1 uM (Table 9); assay type: binding; details: read-out: % inhibition at 1 uM, MEK5
Source text: as §1

[16] = target: EGFR(T790M) (Homo sapiens (Human), UniProt P00533, T790M); experiment: DiscoverX binding assay
Source text: as §1

[17] = system: TEL-JAK2 transformed Ba/F3 cells; experiment: cells; details: Mus musculus, BaF3, read-out: GI50, TEL-JAK2
[18] = target: JAK3 (Homo sapiens (Human), UniProt P52333); experiment: DiscoverX binding assay
Source text: as §1

[19] = target: T1, BMX; experiment: Invitrogen Select Screening in vitro kinase assay; assay type: biochemical
Source text: The in vitro activity of compounds of Formula (I) and (II) in inhibiting BMX and other kinases were obtained using an Invitrogen Select Screening assay as known in the art.

[20] = target: PIK3CA(I800L) (Homo sapiens (Human), UniProt P42336, I800L); experiment: Kinase panel at 1 uM (Table 9); assay type: binding; details: read-out: % inhibition at 1 uM, PIK3CA(I800L)
PIK3CA(I800L), sequence (P42336 whole entry I800L): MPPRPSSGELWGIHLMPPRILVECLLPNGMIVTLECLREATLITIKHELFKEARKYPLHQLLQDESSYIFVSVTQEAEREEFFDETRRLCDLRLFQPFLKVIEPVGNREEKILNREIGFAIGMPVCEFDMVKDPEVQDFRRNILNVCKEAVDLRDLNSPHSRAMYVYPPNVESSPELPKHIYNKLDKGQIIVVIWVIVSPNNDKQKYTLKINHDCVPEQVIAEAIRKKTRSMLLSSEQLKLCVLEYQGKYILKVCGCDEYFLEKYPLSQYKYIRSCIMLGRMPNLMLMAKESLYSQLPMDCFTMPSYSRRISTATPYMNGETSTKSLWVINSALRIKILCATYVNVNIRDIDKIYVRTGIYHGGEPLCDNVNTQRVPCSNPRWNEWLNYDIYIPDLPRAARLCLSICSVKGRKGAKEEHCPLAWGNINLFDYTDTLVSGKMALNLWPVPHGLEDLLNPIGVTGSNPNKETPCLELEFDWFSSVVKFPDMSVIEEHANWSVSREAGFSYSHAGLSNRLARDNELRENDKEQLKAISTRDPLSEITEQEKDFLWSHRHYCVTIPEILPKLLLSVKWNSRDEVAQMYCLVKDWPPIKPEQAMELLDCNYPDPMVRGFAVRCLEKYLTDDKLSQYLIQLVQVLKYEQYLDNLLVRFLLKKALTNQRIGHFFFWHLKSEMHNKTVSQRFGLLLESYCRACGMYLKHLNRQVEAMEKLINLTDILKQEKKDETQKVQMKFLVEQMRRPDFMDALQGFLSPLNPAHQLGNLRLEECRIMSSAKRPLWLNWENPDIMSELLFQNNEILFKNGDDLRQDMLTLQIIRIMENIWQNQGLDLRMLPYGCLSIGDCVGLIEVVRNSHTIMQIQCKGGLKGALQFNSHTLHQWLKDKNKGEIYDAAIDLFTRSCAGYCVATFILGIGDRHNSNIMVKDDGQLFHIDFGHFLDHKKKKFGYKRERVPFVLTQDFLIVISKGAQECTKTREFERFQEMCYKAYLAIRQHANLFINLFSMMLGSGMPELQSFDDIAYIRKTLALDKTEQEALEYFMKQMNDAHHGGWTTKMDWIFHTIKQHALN
Source text: as §1

T1 sequence (P51813 whole entry): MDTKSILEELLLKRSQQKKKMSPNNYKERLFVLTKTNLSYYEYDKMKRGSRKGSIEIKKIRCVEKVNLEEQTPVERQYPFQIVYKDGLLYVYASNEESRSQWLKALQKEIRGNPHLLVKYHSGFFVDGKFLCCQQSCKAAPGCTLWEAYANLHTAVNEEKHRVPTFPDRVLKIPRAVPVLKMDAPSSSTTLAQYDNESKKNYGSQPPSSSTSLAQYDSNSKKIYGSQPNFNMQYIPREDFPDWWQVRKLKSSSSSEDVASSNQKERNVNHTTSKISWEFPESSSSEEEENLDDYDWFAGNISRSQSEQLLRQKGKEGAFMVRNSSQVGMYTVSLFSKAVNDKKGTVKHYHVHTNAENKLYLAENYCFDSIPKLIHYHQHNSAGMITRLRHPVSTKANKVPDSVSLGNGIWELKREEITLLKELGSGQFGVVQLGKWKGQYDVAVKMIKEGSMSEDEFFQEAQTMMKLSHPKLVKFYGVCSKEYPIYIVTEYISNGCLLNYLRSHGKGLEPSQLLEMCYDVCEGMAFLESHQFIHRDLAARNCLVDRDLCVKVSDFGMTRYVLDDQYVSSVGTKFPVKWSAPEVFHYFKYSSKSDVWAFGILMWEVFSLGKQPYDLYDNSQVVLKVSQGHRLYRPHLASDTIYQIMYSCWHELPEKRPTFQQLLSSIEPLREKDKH
JAK3, sequence (P52333 whole entry): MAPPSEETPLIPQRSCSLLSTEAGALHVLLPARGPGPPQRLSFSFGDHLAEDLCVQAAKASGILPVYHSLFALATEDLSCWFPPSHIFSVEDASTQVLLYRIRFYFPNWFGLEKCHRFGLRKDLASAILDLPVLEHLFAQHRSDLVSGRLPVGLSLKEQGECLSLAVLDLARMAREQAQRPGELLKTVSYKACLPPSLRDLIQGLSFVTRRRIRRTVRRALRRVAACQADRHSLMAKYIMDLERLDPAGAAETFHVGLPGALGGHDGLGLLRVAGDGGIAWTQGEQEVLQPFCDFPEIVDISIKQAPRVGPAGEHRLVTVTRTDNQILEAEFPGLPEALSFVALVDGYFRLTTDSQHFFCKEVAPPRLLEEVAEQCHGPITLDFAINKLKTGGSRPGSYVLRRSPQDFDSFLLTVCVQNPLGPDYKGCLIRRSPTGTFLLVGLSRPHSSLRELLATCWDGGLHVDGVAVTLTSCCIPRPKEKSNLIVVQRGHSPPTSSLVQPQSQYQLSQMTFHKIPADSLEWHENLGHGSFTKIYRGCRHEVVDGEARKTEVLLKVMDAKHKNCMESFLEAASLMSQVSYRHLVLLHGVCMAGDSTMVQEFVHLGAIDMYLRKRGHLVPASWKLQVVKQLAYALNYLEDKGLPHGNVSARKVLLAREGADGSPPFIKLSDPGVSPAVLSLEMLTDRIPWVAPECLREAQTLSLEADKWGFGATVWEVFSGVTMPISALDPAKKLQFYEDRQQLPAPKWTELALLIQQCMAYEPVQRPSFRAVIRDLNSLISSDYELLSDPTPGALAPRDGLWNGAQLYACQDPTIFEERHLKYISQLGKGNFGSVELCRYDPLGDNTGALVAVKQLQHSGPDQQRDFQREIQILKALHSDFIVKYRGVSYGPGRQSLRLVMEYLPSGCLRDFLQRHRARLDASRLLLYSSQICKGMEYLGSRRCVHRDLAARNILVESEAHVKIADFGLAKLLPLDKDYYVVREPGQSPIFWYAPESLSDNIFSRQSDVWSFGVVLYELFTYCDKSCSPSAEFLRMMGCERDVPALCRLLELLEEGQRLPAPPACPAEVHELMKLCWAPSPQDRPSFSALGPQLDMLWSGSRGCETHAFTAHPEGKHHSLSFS
BLK, sequence (P51451 whole entry): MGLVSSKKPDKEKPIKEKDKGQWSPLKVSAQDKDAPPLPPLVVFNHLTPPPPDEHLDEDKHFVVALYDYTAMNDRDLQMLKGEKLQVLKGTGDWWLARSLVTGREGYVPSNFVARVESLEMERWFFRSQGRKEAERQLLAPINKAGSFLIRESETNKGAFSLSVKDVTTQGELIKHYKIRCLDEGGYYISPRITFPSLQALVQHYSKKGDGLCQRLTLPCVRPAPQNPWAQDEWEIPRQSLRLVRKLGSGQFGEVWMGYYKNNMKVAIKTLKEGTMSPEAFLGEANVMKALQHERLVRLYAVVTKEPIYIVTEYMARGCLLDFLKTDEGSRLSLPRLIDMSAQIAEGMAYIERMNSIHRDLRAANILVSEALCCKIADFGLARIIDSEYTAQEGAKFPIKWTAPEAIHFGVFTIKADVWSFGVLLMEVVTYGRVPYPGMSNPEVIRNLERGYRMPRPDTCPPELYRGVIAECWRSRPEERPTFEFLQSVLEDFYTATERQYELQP
JNK1, sequence (P45983 whole entry): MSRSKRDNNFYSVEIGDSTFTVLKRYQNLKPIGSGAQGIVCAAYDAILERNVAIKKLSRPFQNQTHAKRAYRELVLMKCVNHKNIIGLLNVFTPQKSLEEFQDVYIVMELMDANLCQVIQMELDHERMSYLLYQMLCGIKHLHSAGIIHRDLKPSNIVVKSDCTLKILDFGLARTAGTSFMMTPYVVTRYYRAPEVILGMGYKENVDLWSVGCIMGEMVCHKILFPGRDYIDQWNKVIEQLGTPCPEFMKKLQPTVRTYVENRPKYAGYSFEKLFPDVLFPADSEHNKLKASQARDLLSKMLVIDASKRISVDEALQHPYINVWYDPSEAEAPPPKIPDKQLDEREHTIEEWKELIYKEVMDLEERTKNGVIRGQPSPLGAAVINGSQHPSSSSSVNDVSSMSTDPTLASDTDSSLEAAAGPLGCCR
PIP5K2C, sequence (Q8TBX8 whole entry): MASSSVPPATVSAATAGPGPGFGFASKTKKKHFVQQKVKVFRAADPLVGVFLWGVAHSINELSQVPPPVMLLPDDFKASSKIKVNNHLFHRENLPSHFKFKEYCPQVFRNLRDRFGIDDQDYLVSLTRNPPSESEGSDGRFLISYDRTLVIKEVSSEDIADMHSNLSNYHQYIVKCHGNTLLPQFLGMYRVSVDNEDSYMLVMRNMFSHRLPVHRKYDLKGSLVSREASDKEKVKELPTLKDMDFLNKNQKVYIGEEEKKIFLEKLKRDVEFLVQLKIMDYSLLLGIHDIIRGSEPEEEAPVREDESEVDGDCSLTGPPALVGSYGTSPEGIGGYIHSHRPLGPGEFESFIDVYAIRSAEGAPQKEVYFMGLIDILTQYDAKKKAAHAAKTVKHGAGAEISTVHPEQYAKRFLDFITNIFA
MEK5, sequence (Q13163 whole entry): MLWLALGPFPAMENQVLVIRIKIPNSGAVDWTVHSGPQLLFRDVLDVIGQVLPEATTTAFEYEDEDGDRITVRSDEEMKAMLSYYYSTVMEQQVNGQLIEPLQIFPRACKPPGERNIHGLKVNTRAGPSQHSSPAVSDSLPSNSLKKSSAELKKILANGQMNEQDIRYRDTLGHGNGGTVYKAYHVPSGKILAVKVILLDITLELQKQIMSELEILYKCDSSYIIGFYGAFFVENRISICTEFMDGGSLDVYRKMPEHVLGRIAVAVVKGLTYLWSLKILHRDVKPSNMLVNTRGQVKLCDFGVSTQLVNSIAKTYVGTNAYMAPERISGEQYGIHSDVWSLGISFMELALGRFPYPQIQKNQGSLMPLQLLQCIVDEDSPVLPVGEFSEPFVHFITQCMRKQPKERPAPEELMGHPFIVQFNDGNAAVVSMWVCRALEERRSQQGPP

C=CC(=O)Nc1cc(-n2c(=O)ccc3cnc4ccc(-c5ccc(NS(C)(=O)=O)cc5)cc4c32)ccc1C [I-14]
inhibition at 1 µM [1]: 100% | GI50 [2]: 6.09 µM | GI50 [3]: > 10 µM | RV1 xenograft growth [4]: decreased | inhibition at 1 µM [5]: 93% | GI50 [6]: 7.77 µM | growth inhibition of cells expressing wild-type BMX versus C496S mutant [7]: more potently inhibits growth of cells expressing the wild-type BMX than the C496S mutant | concentration sufficient to inhibit BMX autophosphorylation in RV-1 cells [8]: ≤ 1 µM | Percent Control, BMX [9]: 29% | inhibition at 1 µM [10]: 5.6% | EC50 [11]: > 20 µM | inhibition at 1 µM [12]: 100% | GI50 [13]: 3.64 µM | Percent Control, BLK ([14]; DiscoverX binding): 40% | inhibition at 1 µM ([14]; read-out: % inhibition at 1 uM, BLK): 40% | inhibition at 1 µM [15]: 100% | Percent Control, EGFR(T790M) ([16]; DiscoverX binding): 2.1% | inhibition at 1 µM ([16]; read-out: % inhibition at 1 uM, EGFR(T790M)): 11% | GI50 [17]: 5.83 µM | Percent Control, JAK3 ([18]; DiscoverX binding): 20% | inhibition at 1 µM ([18]; read-out: % inhibition at 1 uM, JAK3(JH1domain-catalytic)): 6.6% | IC50 [19]: 0.00799 µM | inhibition at 1 µM [20]: 46%
